Like-named read-outs stand apart in the source and are kept apart here. Marks after values point to notes of the source that are not given here.
Key:
[1] = Liver microsome stability assessment; assay type: in vitro ADME, rat; conditions: LCMS analysis of liver microsome assay mixtures
[2] = scale 0–6, cited from earlier work

SMILES: CN(C)CCCOc1ccc(S(=O)(=O)N2c3ccccc3Oc3ccccc32)cc1.O=C(O)C(F)(F)F [Compound 4b, 3-(4-((10H-Phenoxazin-10-yl)sulfonyl)phenoxy)-N,N-dimethylpropan-1-amine.TFA]
- major metabolic route [1]: demethylation

SMILES: CNCCC=C1c2ccccc2CCc2ccccc21 [nortriptyline]
- CNS MPO score [2]: 3.3

SMILES: NCC1(CC(=O)O)CCCCC1 [Gabapentin]
- CNS MPO score [2]: 4.2 ^a
- CNS MPO score ([2]; listed as gabapentin): 4.2

SMILES: CN(C)CCCN1c2ccccc2CCc2ccc(Cl)cc21 [clomipramine]
- CNS MPO score [2]: 3.1

SMILES: COc1cccc(C2(O)CCCCC2CN(C)C)c1 (stereo not shown) [tramadol]
- CNS MPO score [2]: 4.6

SMILES: CNCCCOc1ccc(S(=O)(=O)N2c3ccccc3Oc3ccccc32)cc1.O=C(O)C(F)(F)F [Compound 4a, 3-(4-((10H-Phenoxazin-10-yl)sulfonyl)phenoxy)-N-methylpropan-1-amine.TFA]
- major metabolic route [1]: demethylation

Source: article PMC11253866 (RSC Medicinal Chemistry, 2024)
